Entries after “also recorded” stand apart in the source; their conditions may differ.
Assays:
Format in all cases: in vivo, mouse
[1] = system: hypoxia-induced pulmonary hypertension in C57BL/6 male mice; assay: Treatment of hypoxia-induced pulmonary hypertension (dosing from Day 14 of hypoxia); conditions: dosing Days 14-21 of hypoxia; for Pulmonary Artery Cross-Sectional Area (PA CSA) / Right Ventricular Free Wall (RVFW) Thickening: 21st day; for Pulmonary Artery Cross-Sectional Area (PA CSA): FIG. 6; for Right Ventricular Free Wall (RVFW) Thickening: FIG. 7
Method: In this Example, the ability of anti-big-ET-1 antibody […] to treat hypoxia-induced pulmonary hypertension in mouse was evaluated. Experimental group animals were subjected to hypoxic conditions for 21 days (Day 1-21) and dosed with […], Bosentan, or control isotype antibody starting on Day 14. At Day 21, animals were evaluated using ultrasound images and measurements of ventricular pressures and cardiac hypertrophy (see Evaluation Materials and Methods in Example 7) and compared to control animals (maintained under normoxic conditions, hypoxia for 14 days, or hypoxia for 14 days followed by normoxia for 7 days). […] C57BL/6 male mice (10-11 weeks old) were weighed and treated or treated and dosed over a course of 21 days as outlined in Table 10. Bosentan was administered orally (PO); anti-big-ET-1 antibody […] and isotype control antibody were administered subcutaneously (SC). Body weights were consistent between groups over the course of this study. Bosentan, an orally active non-selective antagonist of endothelin receptor-A and -B, was used as a positive control while an irrelevant isotype-matched antibody served as the negative control. All procedures were approved by the Regeneron Institutional Animal Care and Use Committee (IACUC). Non-invasive ultrasound scanning was performed to determine pulmonary artery cross-sectional area (PA CSA), right ventricle cardiac output (RV CO) and right ventricular free wall thickness (RVFW) on the 21st day of hypoxia. Right ventricular diastolic and systolic pressures were acquired using a high-fidelity pressure catheter (Mikro-Tip®, Millar Instruments) in the right ventricle; in addition, right ventricular hypertrophy measurements (i.e., weight ratio of right ventricle-to-left ventricle+septum; Fulton Index) were measured at 21 days of hypoxia.

[2] = system: bleomycin-induced pulmonary fibrosis in C57BL/6 male mice
Method: Bleomycin-induced lung injury was used to model pulmonary fibrosis in 10-week-old C57BL/6 male mice. Bleomycin sulfate was administered via a single oropharyngeal dose (3.2 U/kg (2.0 mg/kg) in a 2.0 ml/kg volume). Untreated control mice received a transoral instillation of sterile 0.9% saline (2.0 ml/kg). Bosentan, an orally active non-selective antagonist of endothelin receptor-A and -B, was used as a positive control for treatment, while vehicle and an irrelevant isotype matched antibody served as negative controls. Mice were allocated to treatment or control groups with dosing regimens as outlined in Table 11.
Each cage was randomly assigned to a therapeutic treatment group so all mice in the cage received the same treatment. Initial average body weight for each treatment group was similar. Daily body weights were recorded throughout the study. Group body weight average and percent change were analyzed and graphed.
Administration of bleomycin or saline was performed while animals were under anesthesia (isoflurane at a 3.5% to 2-liters/min oxygen flow rate). Sedated mice were placed on a 60-degree tilt board, head up with an elastic band around the incisors. A small cotton tip was used to roll tongue out of the mouth then forceps were used to hold tongue and to open the jaw. During a heavy inhalation, fluid was pipetted into the mouth. Tongue and jaw positions were maintained while mouse remained on the tilt board. Approximately 20 seconds elapsed after pipetting for fluid to disappear and “wheezing” to stop. After treatment instillation, mice were group-housed by treatment conditions (5 animals per cage) in disposable cages for 7 days because of excreted biohazard and then returned to home cages. Disposable cages differed from home cages only by use of a cage top bottle for water instead of use of Thoren rack watering system. All mice were housed in colony on 12 hr (7 am-7 pm) light-dark cycle.
Bosentan was administered by oral gavage twice daily (9:30 am and 6:30 pm) during the week. The initial pretreatment dose and weekend day doses were administered as a single combined BID. As outlined in Table 11, Bosentan dosing continued daily through day 20 of study while antibodies and vehicle were subcutaneously dosed every 3 days through day 18.
Pulmonary function was gauged by measuring arterial oxygen saturation using the Starr Life Sciences, MouseOx small animal vital signs monitor. Measurements were taken around the neck region following hair removal on Days 14 and 17. The MouseOx can monitor the cardio-pulmonary health and degree of lung injury by measuring the level of oxygen carried to the tissues on hemoglobin molecules in red blood cells. A throat collar sensor was used to measure arterial oxygen saturation via the carotid artery in conscious mice. Mice were lightly restrained by hand to confine subject to the cage top food hopper and to reduce movement. […] Once a continuous 15 second block is recorded, the software calculates the average of the above parameters. […] An average arterial oxygen saturation for each treatment group was calculated and analyzed using one-way ANOVA with Bonferroni post-test comparisons of all treatment groups.
On Day 21, mice were administered a terminal dose of Ketamine/Xylazine (120 mg/kg/5 mg/kg IP, respectively). […] Wet and dry lung weights and wet wt. to dry wt. ratios were calculated for each treatment group. […]

[3] = system: bleomycin-induced pulmonary fibrosis in C57BL/6 male mice; conditions: 20 days post bleomycin; vs vehicle or isotype control
[4] = system: hypoxia-induced pulmonary hypertension in C57BL/6 male mice; assay: Blocking/prevention of hypoxia-induced pulmonary hypertension (dosing prior to and during hypoxia); conditions: 18th day of hypoxia
Method: Ultrasound measurements were acquired using the following protocol. Mice were anesthetized, placed in a supine position on a heated platform (THM 100, Indus Instruments) and 2D imaging of the pulmonary infundibulum (B- and M-mode) was carried out using a Vevo 2100 ultrasound system (VisualSonics). Images were obtained from the parasternal short-axis view at the level of the aortic valve. Pulsed-wave Doppler measurements were obtained at the tip of the pulmonary valve leaflets once the scanhead was aligned for maximal laminar flow. In addition, M-mode recordings of the right ventricle were acquired at the short axis B-mode imaging plane to obtain right ventricular free-wall dynamics through the cardiac cycle.
Ultrasound data analysis, performed in a blinded manner, analyzed the following parameters: Diastolic and systolic right ventricular free-wall thickness (RVFW, short axis M-mode), pulmonary artery diameter at end-systole (short axis B-mode), and pulmonary artery flow (PA flow, PW Doppler). From these measurements, time-velocity integral of pulmonary flow, pulmonary artery cross-sectional area (PA CSA), and right ventricle cardiac output (RV CO) were calculated. Means and standard errors of the mean were calculated for measurements at each time point, for each treatment group. All measurements were averaged on 3 cardiac cycles. Right ventricular pressures at 21 days of hypoxia were recorded using the following protocol: Mice were anesthetized, placed in the supine position on a heated platform (Water-jacketed pad heated with a Gaymar heating pump) and an incision over the right common carotid artery and right jugular vein was made isolating the right jugular taking care not to damage the carotid artery and/or the Vagus nerve. […]
Right ventricular systolic pressure analysis was conducted using LabChart Pro software (ADInstruments) at approximately 60 second intervals of pressure tracing (following a 2 minute period of recording to allow for pressure stabilization). The parameters analyzed were RV diastolic and systolic pressures, heart rate and animal temperature. […]

For `COc1ccccc1Oc1c(NS(=O)(=O)c2ccc(C(C)(C)C)cc2)nc(-c2ncccn2)nc1OCCO` [Bosentan, reference compound], the “Pulmonary Artery Cross-Sectional Area (PA CSA)” value [1] was “significantly reverse the reduction in pulmonary artery cross-sectional area”, the “Pulmonary Artery Cross-Sectional Area (PA CSA)” value ([1]; listed as bosentan) was “lessened lumen diameter loss” and the “Right Ventricular Free Wall (RVFW) Thickening” value [1] was “significantly reverse right ventricular free wall (RVFW) thickening”. For the same compound, the “Right Ventricular Free Wall (RVFW) Thickening” value ([1]; listed as bosentan) was “attenuated right ventricular free wall (RVFW) thickening”, the “Distal Pulmonary Arteriole Wall Thickening” value ([1]; FIG. 5) was “significantly reverses distal pulmonary arteriole wall thickening” and the “Right Ventricular Cardiac Output (RV CO)” value ([1]; FIG. 9) was “Greater preservation of RV CO in bosentan-treated vs antibody-treated animals”. For the same compound, the “Right Ventricular Systolic Pressure (RVSP)” value ([1]; FIG. 10) was “tends to reduce the RVSP”, the “lung wet weights (in words)” value ([2]; 21 days post bleomycin, vs isotype control) was “showed statistically significant reductions in wet lung weights” and the “Wet Weight Rt. Lung (mg) AVG ± SEM” value ([2]; bleomycin 3.2 U/kg, 21 days post bleomycin) was 117 ± 6 mg. For the same compound, the “% Arterial Blood 02 Saturation AVG ± SEM” value ([2]; bleomycin 3.2 U/kg, MouseOx throat collar sensor) was 93 ± 1%, the “Total Collagen Rt. Lung (ug) AVG ± SEM” value ([2]; bleomycin 3.2 U/kg, Sircol soluble collagen, Day 21) was 403 ± 38 µg and the “collagen accumulation in the lung (in words)” value ([2]; post bleomycin exposure) was “reduced collagen accumulation in the lung”. For the same compound, the “arterial blood oxygen saturation (in words)” value [3] was “tended to restore arterial blood oxygen saturation closer to baseline levels”, the “Pulmonary Artery Cross-Sectional Area (PA CSA)” value ([4]; H4H6327P2 25 mg/kg SC every 3 days, Bosentan 300 mg/kg PO SID, FIG. 1) was “showed a similar yet reduced capacity to maintain basal PA CSA; also recorded: significantly lessen the reduction in PA CSA” and the “Right Ventricular Cardiac Output (RV CO)” value ([4]; preventive dosing, FIG. 2) was “showed a greater preservation of RV CO compared to the vehicle-treated group”. The “Right Ventricular Free Wall Thickness, systole (RVFW,s)” value ([4]; preventive dosing, FIG. 4) was “tends to reduce (not significant) the thickening of the RVFW”.

Reference: patent publication US9751932B2, “Anti-big-endothelin-1 (big-ET-1) antibodies and uses thereof” (Regeneron Pharmaceuticals, Inc., priority 2012, dated 2017)
